Results taken from US10195209B2, “Anti-huLRRC15 antibody drug conjugates and methods for their use” (AbbVie Inc., priority 2015, dated 2019).

Legend:
[1] = test system: CTG-0241 (human osteosarcoma) patient-derived xenograft; experiment: CTG-0241 patient-derived osteosarcoma xenograft model; assay type: in vivo, nu/nu mice
From the text: (§1) Female nu/nu mice were implanted unilaterally on the left flank region with CTG-0241 tumor fragments harvested from host animals, each implanted from a specific passage lot. When tumors reached approximately 250-350 mm^3, animals were matched by tumor volume into treatment and control groups and dosing initiated (Day 0).
In FIG. 18B, female nu/nu mice were implanted unilaterally on the left flank region with CTG-0241 tumor fragments harvested from host animals, each implanted from a specific passage lot. When tumors reached approximately 250-350 mm^3, animals were matched by tumor volume into treatment and control groups and dosing initiated (Day 0). Dosing with isotype mAb or ADCs was performed IP at 6 mg/kg on a Q4Dx6 (one dose given every 4 days for a total of 6 doses), while cisplatin was dosed IP Q7Dx3 (once every 7 days for a total of 3 doses) at 7.5 mg/kg, doxorubicin was dosed intravenously (IV) once daily at 1 mg/kg for 5 days, gemcitabine was dosed IP Q3Dx4 (every 3 days for a total of 4 doses) at 80 mg/kg, and ifosfamide was dosed IP QDx3 (one dose given every day for a total of 3 doses) at 120 mg/kg.

[2] = test system: EBC-1 (squamous NSCLC) cells; experiment: In vitro cell killing assay (Cell TiterGlo), huLRRC15-negative EBC-1; assay type: cell-based, human; conditions: huLRRC15-negative EBC-1, 4 days
Procedure: (§2) In the in vitro cell killing assays, cells are seeded at 500-3000 cells per well into 96-well plates with varying concentrations ([…]) of antibodies and ADCs. The cells are incubated for 4 days in culture and then the percent cell viability relative to untreated cells is determined using Cell TiterGlo™ which measures ATP content within the treated cells.

[3] = test system: U118MG (glioblastoma) xenograft tumors; experiment: U118MG glioblastoma xenograft model; assay type: in vivo, SCID mice
Procedure: For the experiments, ten million cells (U118MG) that were grown in vitro were inoculated subcutaneously per mouse into the right flank of female SCID mice. Tumors were size matched at˜100 mm^3, and dosed intraperitoneally (IP) Q6Dx2 (1 dose given every 6 days for a total of 2 doses) as shown in FIG. 14A. Measurements of the length (L) and width (W) of the tumors were taken via electronic caliper and the volume was calculated according to the following equation: V=L×W^2/2.
For the experiment, U118MG human glioblastoma cells were grown in vitro, and were inoculated subcutaneously (10 million cells per mouse) into the right flank of female SCID mice. Tumors were size matched at ˜150 mm^3, antibodies and immunoconjugates were administered IP Q4Dx6 (one dose give every 4 days for a total of 6 doses) at 10 or 6 mg/kg, respectively. At Day 165 post sizematch when tumors had regrown to ˜450 mm^3, animals were retreated with huM25-vcMMAE-DAR4 IP Q4Dx3 (one dose given every 4 days for a total of 3 doses) at 6 mg/kg.
Four preparations of huM25-vcMMAE that differed in their relative DAR profile (E2, E2/E4, E4 or DAR4) were tested for efficacy in U118MG tumors. […]
The potency of anti-huLRRC15 ADCs as compared to current standards of care was assessed in xenograft model U118MG (glioblastoma), and patient-derived xenograft models CTG-0241 osteosarcoma) and CTG-1095 (osteosarcoma). […]

[4] = test system: RPMI-7951 (melanoma) cells; experiment: In vitro cell killing assay (Cell TiterGlo), RPMI-7951; assay type: cell-based, human; conditions: RPMI-7951, 4 days
Procedure: as §2

[5] = test system: U118MG (glioblastoma) cells; experiment: In vitro cell killing assay (Cell TiterGlo), U118MG; assay type: cell-based, human; conditions: 4 days, percent cell viability by Cell TiterGlo
Procedure: as §2
Preparation of the huM25-PBD-DAR2 ADC was accomplished according to the procedure described in Example 8.
FIG. 13E depicts the potent in vitro 4-day cell killing ability of anti-huLRRC15 ADC huM25-PBD-DAR2 as compared with the isotype control PBD DAR2 ADC in U118MG (glioblastoma) cells.

[6] = test system: CTG-1095 (human osteosarcoma) patient-derived xenograft; experiment: CTG-1095 patient-derived osteosarcoma xenograft model; assay type: in vivo, NSG mice
From the text: as §1, with “NSG” for “nu/nu”, “CTG-1095” for “CTG-0241”
In FIG. 18C, female NSG mice were implanted unilaterally on the left flank region with CTG-1095 tumor fragments harvested from host animals, each implanted from a specific passage lot. When tumors reached approximately 150-300 mm^3, animals were matched by tumor volume into treatment and control groups and dosing initiated (Day 0). Dosing with isotype mAb or ADCs was performed IP at 12 mg/kg Q4Dx6 (one dose given every 4 days for a total of 6 doses), while cisplatin was dosed intraperitoneally Q7Dx2 (once every 7 days for a total of 2 doses) at 7.5 mg/kg.
In FIG. 18D, female NSG mice were implanted unilaterally on the left flank region with CTG-1095 tumor fragments harvested from host animals, each implanted from a specific passage lot. When tumors reached approximately 200 mm^3, animals were matched by tumor volume into treatment and control groups and dosing initiated (Day 0). Dosing with isotype mAb or ADCs was performed IP at 6 mg/kg on a Q4Dx6 (one dose given every 4 days for a total of 6 doses), while gemcitabine was dosed IP Q3Dx4 (every 3 days for a total of 4 doses) at 80 mg/kg.

[7] = test system: G292 clone A141B1 (osteosarcoma) cells; experiment: In vitro cell killing assay (Cell TiterGlo), G292 clone A141B1; assay type: cell-based, human; conditions: G292 clone A141B1, 4 days
Procedure: as §2

[8] = Rat tolerability experiment; assay type: in vivo, Sprague Dawley wild type rats; conditions: single IV dose at MMAE equivalent levels, FIG. 16A
Procedure: The safety profiles of E2, E4 and E2/E4 preparations of huM25-vcMMAE ADCs were assessed in a rat tolerability experiment (FIGS. 16A, 16B). For the assay, Sprague Dawley wild type rats were dosed with a single IV dose at MMAE equivalent levels of each antibody drug conjugate. […] Double the protein antibody dose was delivered with equal amounts of MMAE, and improved survival for E2 was seen over E4. Fewer deaths occurred in the animals dosed with E2 than E4 ADCs, and the deaths that did occur happened later on Day 8. Broad drug distribution DAR4 has an MTD of 20 mg/kg.

[9] = test system: human BM-MSC (Lonza) mesenchymal stem cells; experiment: In vitro cell killing, human BM-MSC treated with TGFβ; assay type: cell-based; conditions: 10 ng/mL TGFβ, same doses
[10] = ADC alone, 6 mg/kg IP Q4Dx6, FIG. 18D
[11] = gemcitabine alone, 80 mg/kg IP Q3Dx4, FIG. 18D

## O=P1(NCCCl)OCCCN1CCCl (stereo not shown) [ifosfamide]
[1]; 120 mg/kg IP QDx3, FIG. 18B
  TGImax: 10%

## huM25-vcMMAE-E2: huM25-vcMMAE ADC preparation enriched in DAR2 by hydrophobic interaction chromatography
[2]
  in vitro cell killing: minimal cancer cell killing
[3]; MMAE-equivalent doses IP every seven days for three doses, FIG. 17
  maximum tumor growth inhibition (TGImax): ≥ 84%
[4]
  in vitro cell killing compared with isotype ADC: superior to that seen with non-targeting isotype-vcMMAE ADCs
[1]; 6 mg/kg IP Q4Dx6, FIG. 14B/18B
  TGImax: 91%
[5]
  in vitro cell killing compared with isotype ADC: superior to that seen with non-targeting isotype-vcMMAE ADCs
[6]; 12 mg/kg IP Q4Dx6, FIG. 14C/18C
  TGImax: 87%
[6]; [10]
  TGD: 193%
  TGImax: 75%
[7]
  in vitro cell killing compared with isotype ADC: superior to that seen with non-targeting isotype-vcMMAE ADCs
[8]
  death, percentage of animals: 25%

## COc1cccc2c1C(=O)c1c(O)c3c(c(O)c1C2=O)C[C@@](O)(C(=O)CO)C[C@@H]3O[C@H]1C[C@H](N)[C@H](O)[C@H](C)O1 [doxorubicin]
[1]; 1 mg/kg IV once daily for 5 days, FIG. 18B
  TGImax: 27%

## Nc1ccn([C@@H]2O[C@H](CO)[C@@H](O)C2(F)F)c(=O)n1 [gemcitabine, reference compound]
[1]; 80 mg/kg IP Q3Dx4, FIG. 18B
  TGImax: 64%
[6]; [11]
  TGD: 241%
  TGImax: 84%

## Cn1nnc2c(C(N)=O)ncn2c1=O [temozolomide, reference compound]
[3]; 20 mg/kg orally daily for first 5 days of a 7-day cycle, two cycles, FIG. 18A
  TGImax: 67%

## N.N.[Cl][Pt][Cl] [cisplatin, reference compound]
[1]; 7.5 mg/kg IP Q7Dx3, FIG. 18B
  TGImax: 44%
[6]; 7.5 mg/kg IP Q7Dx2, FIG. 18C
  TGImax: 70%

B1: huAD208.4.1-PBD-DAR2: anti-LRRC15 PBD ADC of huAD208.4.1, cross-reactive to human and mouse LRRC15 (conjugate)
VH: EVQLVQSGAEVKKPGSSVKVSCKASGFTFTDYYIHWVKQAPGQGLEWIGLVYPYIGGTNYNQKFKGKATLTVDTSTTTAYMEMSSLRSEDTAVYYCARGDNKYDAMDYWGQGTTVTVSS
VL: DIVLTQSPDSLAVSLGERATINCRASQSVSTSSYSYMHWYQQKPGQPPKLLIKYASSLESGVPDRFSGSGSGTDFTLTISSLQAEDVAVYYCEQSWEIRTFGGGTKVEIK
[9]
  in vitro cell killing effect compared with isotype-PBD-DAR2: higher cell killing effect than isotype-PBD-DAR2
